Data from patent US9408908B2, “Combination adjuvant formulation” (University of Saskatchewan, priority 2008, dated 2016).
Entries after “also recorded” stand apart in the source; their conditions may differ. No end group written: not given here.

Experiments:
[1] = system: human PBMCs and human red blood cells; test: Cytotoxicity: LDH release in human PBMCs and haemolysis of human red blood cells
human PBMC [2] = test: Chemokine induction by host defense peptides in human PBMC (ELISA); assay type: cell-based
Experimental: (§1) These peptides were tested for induction of chemokines and cytokines in human PBMCs. Human PBMCs stimulated with 20 and 100 μg/ml of host defense peptides were assessed for various cytokines and chemokines at the 24 hour time-point by ELISA (eBiosciences). […] Subsequently, selected host defense peptides were examined for protective activity in vivo. Briefly, BALB/c mice were administered peptides (8 mg/kg) by i.p. administration 4 h prior to infection. Mice were infected with 8.4×10^7 S. aureus in 5% mucin by i.p. administration. Bacterial counts in the peritoneal lavage were determined in 24 h after the initiation of infection.

ΔF from BRSV = test: Immunization of mice with BRSV ΔF protein co-formulated with CpG ODN 1826, indolicidin and/or polyphosphazene; assay type: in vivo, C57BL/6 and Balb/c mice; settings: overall conclusion
Experimental: Six- to eight-week-old female C57BL/6 mice (Charles River, Montreal, Quebec) were immunized twice subcutaneously at 3 week intervals with 100 μL of vaccine containing 0.5 μg ΔF from BRSV (a truncated form of the BRSV F protein engineered to lack the transmembrane domain (aa1-522 only), either alone, or co-formulated with CpG oligonucleotide 1826 (CpG ODN), indolicidin (indol), and/or polyphosphazene (PP). CpG ODN, indolicidin and polyphosphazene were given at doses of 10 μg, 20 μg, and 50 μg, respectively. Negative control animals were immunized with buffer (placebo). CpG ODN 1826 ([…]) (SEQ ID NO:8) was provided by Merial (Lyon, France), and contained a phosphorothioate-modified backbone. […]
Statistical analysis was carried out using GraphPad Prism version 5.00 for Windows (GraphPad Software, San Diego, Calif.). Differences between groups were determined using a Mann-Whitney U test.
CpG ODN 1826, indolicidin, and polyphosphazene were examined for their ability to enhance antigen-specific immune responses when administered with the ΔF protein, either alone, or co-formulated with CpG, indolicidin, and/or PP. […] Mice were immunized twice subcutaneously, and serum total anti-ΔF IgG titers were measured after each immunization by ELISA. […]

[3] = Effect of indolicidin dose on adjuvant activity with CpG ODN 1826 (unpublished results); assay type: in vivo; settings: 20 μg of peptide co-administered with CpG ODN 1826
Excerpt: Adjuvant doses were selected based on previous reports of adjuvanticity of the individual components.

[4] = Cytokine production by indolicidin with CpG ODN (unpublished results)
Excerpt: The combination of indolicidin, however, along with CpG ODN and polyphosphazene enhanced ΔF-specific humoral and cellular immune responses, and generated a Th1 response. […] The combination of all three adjuvants was required for optimal enhancement of the immune response, as well as to shift the resulting anti-ΔF immune response from Th2 to Th1. However the mechanisms of this immune enhancement are unclear. Without being bound by a particular theory, the enhanced immunogenicity and Th1-biasing effect of the combination with all three adjuvants with ΔF could be as a result of the stabilization and prolonged effect of CpG ODN and/or ΔF, and an increased uptake of CpG ODN and ΔF into antigen-presenting cells.

S. aureus = test: Protection against S. aureus infection in mice; assay type: in vivo, BALB/c mice; settings: 8 mg/kg i.p. 4 h prior to infection; bacterial counts in peritoneal lavage at 24 h
Experimental: as §1

human PBMC [5] = test: MCP-1 induction by triple adjuvant formulations (peptide, CpG 10103, PCPP) in human PBMC; assay type: cell-based; settings: 24 hours, peptide 40 μg/ml, CpG 20 μg/ml, no PCPP, average of 4 biological replicates
Experimental: The effect of PCPP addition on chemokine induction by peptide-CpG 10103 complexes was assessed by the induction of MCP-1 in human PBMCs. Briefly, peptide-CpG complexes were formed as previously described and following incubation PCPP, with or without MgCl2 (pH 7.4), was added to the peptide-CpG complexes at various concentrations and incubated for 30 min at 37° C. Following incubation, human PBMCs were stimulated with the various formulations for 24 hours and levels of MCP-1 were measured by ELISA.

[6] = system: human cord blood mononuclear cells; test: Peptide activity in human cord blood mononuclear cells; assay type: cell-based
Experimental: as §1

human PBMCs = test: MCP-1 induction by nucleic acid-peptide formulations in human PBMCs; assay type: cell-based; settings: human PBMCs 24 hours; coupled with peptide 1002 or 1018; four biological replicates
Experimental: Chemokine induction by nucleic acid-peptide formulations Direct complex formation between the various nucleic acids and synthetic host defense peptides was verified prior to human PBMC stimulations. For determination of the immunostimulatory activities of various nucleic acids in complex with host defense peptides in vitro, the following experiment was conducted. Various combinations of CpG ODN 10103, non-CpG ODN 5′[…]3′ (SEQ ID NO:13), poly(I:C) and the synthetic host defense peptides 1002 and 1018 were examined for chemokine induction. Briefly, nucleic acids and peptide were co-incubated for 30 min at 37° C. prior to cell stimulations. Human PBMCs were stimulated with the various formulations for 24 hours and levels of MCP-1 were measured by ELISA. Optimal ratios 2:1, 1:1 and 1:2 nucleic acid:host defense peptide (μg/ml:μg/ml) were identified between concentration thresholds of 40 μg/ml and 10 μg/ml. The results were from four biological replicates.

[7] = Table 2, JK peptides, human PBMCs, peptide concentration 20 μg/ml
[8] = Table 2, JK peptides, human PBMCs, peptide concentration 100 μg/ml
[9] = Table 3, indolicidin derivatives, human PBMCs, peptide concentration 20 (unit not given)
[10] = Table 3, indolicidin derivatives, human PBMCs, peptide concentration 100 (unit not given)
[11] = human PBMC, peptide concentration 20 μg/ml
[12] = human PBMC, peptide concentration 20 μg/ml, 24 hour, ELISA
[13] = human PBMC, peptide concentration 100 μg/ml
[14] = human PBMC, peptide concentration 100 μg/ml, 24 hour, ELISA

## VQRWLIVWRIRK [Peptide 1002]
[1]
  cytotoxicity (LDH release in human PBMCs, haemolysis of human red blood cells): minimal cytotoxicity

## JK1: peptide VFLRRIRVIVIR (SEQ ID NO:2) (JK1)
Human PBMC [2]; [7]
  Chemokine Induction Gro-α: 377 pg/mL
  Chemokine Induction MCP-1: 663 pg/mL
Human PBMC [2]; [8]
  Chemokine Induction Gro-α: 105 pg/mL
  Chemokine Induction MCP-1: 1226 pg/mL

## indolicidin [reference compound]
Human PBMC [2]; [9]
  Chemokine Induction Gro-α: 84 pg/mL
  Chemokine Induction MCP-1: 245 pg/mL
Human PBMC [2]; [10]
  Chemokine Induction Gro-α: 846 pg/mL
  Chemokine Induction MCP-1: 3120 pg/mL
ΔF from BRSV
  type and enhancement of ΔF-specific immune response: sustain the type-2 immune response; also recorded: did not appear to be an effective adjuvant
[3]
  adjuvant activity and class switching to IgG2a by dose: enhanced antigen-specific immune responses and effected class switching to IgG2a better than when the peptide was administered at a 10-fold higher dose
[4]
  production of Th1 cytokines IL-12 and IFN-γ and chemotactic factor MCP-1: acts synergistically with CpG ODN

## Nisin Z [reference compound]
Human PBMC [2]; [11]
  Chemokine Induction Gro-α: 62 pg/mL
Human PBMC [2]; [12]
  Chemokine Induction MCP-1: 434 pg/mL
Human PBMC [2]; [13]
  Chemokine Induction Gro-α: 5811 pg/mL
Human PBMC [2]; [14]
  Chemokine Induction MCP-1: 7329 pg/mL
S. aureus
  protection in animal challenges against S. aureus: offered protection
Human PBMC [5]
  MCP-1 Induction: 47 pg/mL

## JK5: peptide VQWRAIRVRVIR (SEQ ID NO:6) (JK5)
Human PBMC [2]; [7]
  Chemokine Induction Gro-α: 317 pg/mL
  Chemokine Induction MCP-1: 673 pg/mL
Human PBMC [2]; [8]
  Chemokine Induction Gro-α: 123 pg/mL
  Chemokine Induction MCP-1: 529 pg/mL

## JK6: peptide VQWRRIRVWVIR (SEQ ID NO:7) (JK6)
Human PBMC [2]; [7]
  Chemokine Induction Gro-α: 254 pg/mL
  Chemokine Induction MCP-1: 721 pg/mL
Human PBMC [2]; [8]
  Chemokine Induction Gro-α: 68 pg/mL
  Chemokine Induction MCP-1: 671 pg/mL

## JK4: peptide VQLRRIRVWVIR (SEQ ID NO:5) (JK4)
Human PBMC [2]; [7]
  Chemokine Induction Gro-α: 245 pg/mL
  Chemokine Induction MCP-1: 655 pg/mL
Human PBMC [2]; [8]
  Chemokine Induction Gro-α: 80 pg/mL
  Chemokine Induction MCP-1: 557 pg/mL

## HH18: host defense peptide IWVIWRR (SEQ ID NO:21) (HH18)
Human PBMC [2]; [11]
  Chemokine Induction Gro-α: 865 pg/mL
  Chemokine Induction MCP-3: 32 pg/mL
Human PBMC [2]; [12]
  Chemokine Induction MCP-1: 1111 pg/mL
Human PBMC [2]; [13]
  Chemokine Induction Gro-α: 2964 pg/mL
  Chemokine Induction MCP-3: 431 pg/mL
Human PBMC [2]; [14]
  Chemokine Induction MCP-1: 9608 pg/mL
Human PBMC [2]; panel of 20 HH-class peptides, 20 and 100 μg/ml, 24 hour
  induction of chemokines and cytokines in human PBMCs (ranking in panel): most active peptides
[6]
  activity in human cord blood mononuclear cells: further confirmed

## CpG ODN 1826
ΔF from BRSV
  type and enhancement of ΔF-specific immune response: shift towards a Th1 or balanced immune response

## JK3: peptide VQLRAIRVRVIR (SEQ ID NO:4) (JK3)
Human PBMC [2]; [7]
  Chemokine Induction Gro-α: 430 pg/mL
  Chemokine Induction MCP-1: 873 pg/mL
Human PBMC [2]; [8]
  Chemokine Induction Gro-α: 320 pg/mL
  Chemokine Induction MCP-1: 747 pg/mL

## polyriboinosinic acid-polyribocytidylic acid [poly(I:C)]
Human PBMCs
  induction of MCP-1 versus individual components: synergistic induction of MCP-1

## VRLIVAVRIWRR-NH2 [Peptide 1018]
[1]
  cytotoxicity (LDH release in human PBMCs, haemolysis of human red blood cells): minimal cytotoxicity
